{"source": "patent US20250326718A1", "about": "“4-PHENYL-2-PYRROLIDINONES AND METHODS OF USING THEREOF” (North Carolina State University, priority 2022, published 2025)", "key": {"[1]": {"tested_on": "MRSA (ATCC 33591)", "assay": "Broth microdilution MIC, MRSA ATCC 33591", "type": "cell-based", "settings": "Staphylococcus aureus; Table 1, Compounds 1-15; preliminary data, modified non-standard conditions (pH 9), solubility-limited", "procedure": "(§1) General information—Biological Assays. Methicillin-resistant and methicillin sensitive Staphylococcus aureus (MRSA and MSSA respectively) strains were obtained from the Laboratory of Professor Christian Melander (NCSU) (ATCC BAA 44 and 33591) and Dr. Jessica Gilbertie (ATCC 25923). Bacteria were kept in frozen stocks on glycerol at −80° C. until use. Bacteria was streaked onto tryptic-soy agar for colony isolation. Mueller-Hinton broth (MHB, 211443-BD), tryptic soy broth (TSB, Remel: R455052) and D-glucose (CAS: 492-62-6) were purchased from Fisher Scientific. Tryptic soy agar (TSA, cat. #22091) and Linezolid (cat. #P70014) were purchased from Sigma-Aldrich. Bacteria for biofilm inhibition were cultured overnight in TSB-G (tryptic soy broth with 0.5% glucose supplement) in 96 well plates. All assays were run in duplicate and repeated at least two separate times for MIC assays and at least three separate times for biofilm inhibition. All compounds were dissolved in molecular biology grade DMSO as 10 mM stock solutions. Optical densities were measured using a Thermo Scientific Genesys 20 spectrophotometer. Data for biofilm inhibition were collected using a BioTek ELx808 Microplate Reader. All graphs were generated and analyzed using GraphPad Prism 7.\nBroth microdilution method for determination of minimum inhibitory concentrations. As prescribed by the Clinical and Laboratory Standards Institute (CLSI) M07-A8, Vol. 29 (2) MSSA (ATCC 25923) and MRSA (ATCC BAA 44 and 33591) was grown in MHB for 6-8 h; this culture was used to inoculate fresh MHB (5×10^5 CFU/mL). The resulting bacterial suspension was aliquoted (1 mL) into 1.5 mL Eppendorf tubes and compound was added from a 10 mM DMSO stock to achieve the desired initial starting concentration (typically 128 μg/mL). Linezolid (from a 10 mM DMSO stock) was used as a positive control. Inoculated media not treated with compound served as the negative control. The MIC was determined by microbroth dilution following the CLSI guidelines. The MIC was defined as the lowest concentration of antibiotic with no visible growth. The plate was sealed and incubated under stationary conditions at 37° C.\nThe antimicrobial activity of Compounds 1-15 was assessed initially against MSSA (ATCC 25923) and MRSA (ATCC 33591) strains. It was observed that almost all these compounds precipitated in aqueous solution at concentrations equal or higher than 8-16 μg/mL. In order to obtain preliminary results on the antimicrobial activity for these compounds, the standard conditions of the antimicrobial assays used where modified to favor the water solubility of these compounds."}, "[2]": {"tested_on": "MRSA (ATCC BAA 44) biofilm", "assay": "Inhibition of MRSA biofilm formation (crystal violet)", "type": "cell-based", "settings": "Staphylococcus aureus, 24 h, Table 1", "procedure": "as §1\nDetermination of the inhibitory effect of test compounds on MRSA biofilm formation. Inhibition assays were performed using a procedure adapted from S. A. Rogers and C. Melander, Angew. Chem. Int. Ed., 2008, 47, 5229-5231, which is hereby incorporated herein by reference. Briefly, the inhibition assays were performed by subculturing an overnight culture of MRSA (ATCC BAA 44) to an OD600 of 0.01 in TSB-G (tryptic soy broth with a 0.5% glucose supplement). Stock solutions of predetermined concentrations of the test compound were then made using the inoculated TSB-G. These stock solutions were aliquoted (100 μL) into the wells of the 96-well microtiter plate. Sample plates were sealed then incubated for 24 h at 37° C. After incubation, the medium was discarded from the wells and the plates were washed 2× with PBS. Prior to staining, plates were left to dry at ambient temperature for 2-3 h. Plates were then stained with 0.1% solution of crystal violet (CV, 125 μL) and then incubated at ambient temperature for 30 min. Plates were washed with PBS again and the remaining stain was solubilized with 99% ethanol (200 μL). A sample of solubilized CV stain (110 μL) from each well was transferred to the corresponding wells of a polystyrene microtiter dish. Biofilm biomass was quantified by measuring the OD540 of each well and inhibition was calculated as a percentage of the control (no compound); a negative control lane wherein no biofilm was formed served as a background and was subtracted out. Percent inhibition was then plotted against concentration in Prism 7. Each of the four experiments were plotted separately and S15 analyzed by a normalized nonlinear regression. The graphs on the following pages were generated from an average of the total data set. Biofilm data represent four separate experiments, with each experiment performed in duplicate (average of 8 data points for each concentration tested, unless otherwise noted)."}, "[3]": {"tested_on": "MSSA (ATCC 25923)", "assay": "Broth microdilution MIC, MSSA ATCC 25923", "type": "cell-based", "settings": "Staphylococcus aureus, read-out: MIC value against MSSA ATCC 25923"}, "[4]": {"tested_on": "MSSA (ATCC 25923) biofilms", "assay": "Minimum Biofilm Eradication Concentration (MBEC), Calgary Biofilm Device", "type": "cell-based, Staphylococcus aureus", "settings": "antibiotic alone", "method": "MBEC concentrations were measured using a procedure adapted from H. Ceri, et al., J Clin. Microbiol., 1999, 1771-1776, which is hereby incorporated herein by reference. Briefly, biofilm eradication experiments were performed using MSSA (ATCC 25923) and the Calgary Biofilm Device (CBD) to determine MBEC values for various compounds of interest (Innovotech, product code: 19111). The Calgary device is a 96-well plate with a lid containing 96 pegs that sit in the media contained in the bottom well. Biofilm are established on the individual pegs. The established biofilm (contained on the individual peg) can then be transferred to a new base well for MBEC testing. For the MBEC assay, an overnight culture of MSSA (ATCC 25923) was adjusted to 0.5 McFarland in MHB-G. The CBD was inoculated with 100 μL of the 0.5 McFarland and incubated at 37° C. for 24 hours to establish biofilms. The CBD lid containing the established biofilms on individual pegs was removed, washed 3× with PBS and transferred to another 96-well plate containing serial dilutions of the test compounds (the “challenge plate”) and incubated at 37° C. for 24 hours. […] The plate was then sonicated for sonicated for 30 minutes to disperse biofilms on S16 the pegs into the fresh MHB in the base well. After sonication, the plate was incubated for 24 hours at 37° C."}}, "note": "Structures can show the parent of a compound that is named as a salt. Where two headings read alike, the source gives them in different places.", "data": [{"smiles": "CCC1C(c2ccc(C(F)(F)F)cc2)=C(O)C(=O)N1c1ccccc1", "note": "(stereo not shown) [Compound 1, 5-Ethyl-3-hydroxy-1-phenyl-4-(4-(trifluoromethyl)phenyl)-1,5-dihydro-2H-pyrrol-2-one]", "values": [{"measurement": "MIC", "setting": "[1]", "value": 16, "unit": "µg/mL"}, {"measurement": "inhibition at 5 µM", "setting": "[2]", "value": 5, "unit": "%"}, {"measurement": "inhibition at 40 µM", "setting": "[2]", "value": 85, "unit": "%"}]}, {"smiles": "CC1C(c2ccc(C(F)(F)F)cc2)=C(O)C(=O)N1c1ccccc1", "note": "(stereo not shown) [Compound 2, 3-Hydroxy-5-methyl-1-phenyl-4-(4-(trifluoromethyl)phenyl)-1,5-dihydro-2H-pyrrol-2-one]", "values": [{"measurement": "MIC", "setting": "[1]", "value": 32, "unit": "µg/mL"}, {"measurement": "inhibition at 5 µM", "setting": "[2]", "value": -26, "unit": "%"}, {"measurement": "inhibition at 40 µM", "setting": "[2]", "value": 72, "unit": "%"}]}, {"smiles": "CCC1C(c2ccc(C(F)(F)F)cc2)=C(O)C(=O)N1c1ccc(Br)cc1", "note": "(stereo not shown) [Compound 3, 1-(4-Bromophenyl)-5-ethyl-3-hydroxy-4-(4-(trifluoromethyl)phenyl)-1,5-dihydro-2H-pyrrol-2-one]", "values": [{"measurement": "MIC", "setting": "[1]", "value": 32, "unit": "µg/mL"}, {"measurement": "inhibition at 5 µM", "setting": "[2]", "value": 34, "unit": "%"}, {"measurement": "inhibition at 40 µM", "setting": "[2]", "value": 72, "unit": "%"}]}, {"smiles": "CCC1C(c2ccc(C(F)(F)F)cc2)=C(O)C(=O)N1c1ccc(F)cc1", "note": "(stereo not shown) [Compound 4, 5-Ethyl-1-(4-fluorophenyl)-3-hydroxy-4-(4-(trifluoromethyl)phenyl)-1,5-dihydro-2H-pyrrol-2-one]", "values": [{"measurement": "MIC", "setting": "[1]", "value": 16, "unit": "µg/mL"}, {"measurement": "inhibition at 5 µM", "setting": "[2]", "value": 22, "unit": "%"}, {"measurement": "inhibition at 40 µM", "setting": "[2]", "value": 81, "unit": "%"}]}, {"smiles": "CCC1C(c2ccc(C(F)(F)F)cc2)=C(O)C(=O)N1c1ccc(OC)c(OC)c1", "note": "(stereo not shown) [Compound 5, 1-(3,4-Dimethoxyphenyl)-5-ethyl-3-hydroxy-4-(4-(trifluoromethyl)phenyl)-1,5-dihydro-2H-pyrrol-2-one]", "values": [{"measurement": "MIC", "setting": "[1]", "value": "> 128", "unit": "µg/mL"}, {"measurement": "inhibition at 5 µM", "setting": "[2]", "value": 17, "unit": "%"}, {"measurement": "inhibition at 40 µM", "setting": "[2]", "value": 70, "unit": "%"}]}, {"smiles": "CCC1C(c2ccc(C(F)(F)F)cc2)=C(O)C(=O)N1c1cccnc1", "note": "(stereo not shown) [Compound 6, 5-Ethyl-3-hydroxy-1-(pyridin-3-yl)-4-(4-(trifluoromethyl)phenyl)-1,5-dihydro-2H-pyrrol-2-one]", "values": [{"measurement": "MIC", "setting": "[1]", "value": "> 128", "unit": "µg/mL"}, {"measurement": "inhibition at 5 µM", "setting": "[2]", "value": 4, "unit": "%"}, {"measurement": "inhibition at 40 µM", "setting": "[2]", "value": 31, "unit": "%"}]}, {"smiles": "CCC1C(c2ccc(C(F)(F)F)cc2)=C(O)C(=O)N1Cc1cccs1", "note": "(stereo not shown) [Compound 7, 5-Ethyl-3-hydroxy-1-(thiophen-2-ylmethyl)-4-(4-(trifluoromethyl)phenyl)-1,5-dihydro-2H-pyrrol-2-one]", "values": [{"measurement": "MIC", "setting": "[1]", "value": "> 128", "unit": "µg/mL"}, {"measurement": "inhibition at 5 µM", "setting": "[2]", "value": 54, "unit": "%"}, {"measurement": "inhibition at 40 µM", "setting": "[2]", "value": 79, "unit": "%"}]}, {"smiles": "CCC1C(c2ccc(C(F)(F)F)cc2)=C(O)C(=O)N1CCc1ccccc1", "note": "(stereo not shown) [Compound 8, 5-Ethyl-3-hydroxy-1-phenethyl-4-(4-(trifluoromethyl)phenyl)-1,5-dihydro-2H-pyrrol-2-one]", "values": [{"measurement": "MIC", "setting": "[1]", "value": "> 128", "unit": "µg/mL"}, {"measurement": "inhibition at 5 µM", "setting": "[2]", "value": 23, "unit": "%"}, {"measurement": "inhibition at 40 µM", "setting": "[2]", "value": 46, "unit": "%"}]}, {"smiles": "O=C1C(O)=C(c2ccc(C(F)(F)F)cc2)CN1c1ccccc1", "note": "[Compound 9, 3-Hydroxy-1-phenyl-4-(4-(trifluoromethyl)phenyl)-1,5-dihydro-2H-pyrrol-2-one]", "values": [{"measurement": "MIC", "setting": "[1]", "value": "> 128", "unit": "µg/mL"}, {"measurement": "inhibition at 5 µM", "setting": "[2]", "value": 26, "unit": "%"}, {"measurement": "inhibition at 40 µM", "setting": "[2]", "value": 8, "unit": "%"}]}, {"smiles": "CC(C)C1C(c2ccc(C(F)(F)F)cc2)=C(O)C(=O)N1c1ccccc1", "note": "(stereo not shown) [Compound 10, 3-Hydroxy-5-isopropyl-1-phenyl-4-(4-(trifluoromethyl)phenyl)-1,5-dihydro-2H-pyrrol-2-one]", "values": [{"measurement": "MIC", "setting": "[1]", "value": "> 128", "unit": "µg/mL"}, {"measurement": "inhibition at 5 µM", "setting": "[2]", "value": -5, "unit": "%"}, {"measurement": "inhibition at 40 µM", "setting": "[2]", "value": 3, "unit": "%"}]}, {"smiles": "CCCCCN1C(=O)C(O)=C(c2ccc(C(F)(F)F)cc2)C1CC", "note": "(stereo not shown) [Compound 11, 5-Ethyl-3-hydroxy-1-pentyl-4-(4-(trifluoromethyl)phenyl)-1,5-dihydro-2H-pyrrol-2-one]", "values": [{"measurement": "MIC", "setting": "[1]", "value": 16, "unit": "µg/mL"}, {"measurement": "inhibition at 5 µM", "setting": "[2]", "value": 58, "unit": "%"}, {"measurement": "inhibition at 40 µM", "setting": "[2]", "value": 63, "unit": "%"}]}, {"smiles": "CCC1C(c2ccc(C(F)(F)F)cc2)=C(O)C(=O)N1CCC(C)C", "note": "(stereo not shown) [Compound 14, 5-Ethyl-3-hydroxy-1-isopentyl-4-(4-(trifluoromethyl)phenyl)-1,5-dihydro-2H-pyrrol-2-one]", "values": [{"measurement": "MIC", "setting": "[1]", "value": "> 128", "unit": "µg/mL"}, {"measurement": "inhibition at 5 µM", "setting": "[2]", "value": 47, "unit": "%"}, {"measurement": "inhibition at 40 µM", "setting": "[2]", "value": 43, "unit": "%"}]}, {"smiles": "CCC1C(c2ccc(C(F)(F)F)cc2)=C(O)C(=O)N1Cc1ccc(OC)cc1OC", "note": "(stereo not shown) [Compound 15]", "values": [{"measurement": "MIC", "setting": "[1]", "value": "> 128", "unit": "µg/mL"}, {"measurement": "inhibition at 5 µM", "setting": "[2]", "value": 63, "unit": "%"}, {"measurement": "inhibition at 40 µM", "setting": "[2]", "value": 57, "unit": "%"}]}, {"smiles": "Cc1onc(-c2ccccc2)c1C(=O)N[C@@H]1C(=O)N2[C@@H]1SC(C)(C)[C@@H]2C(=O)O", "note": "[Oxacillin, oxacillin sodium monohydrate, reference compound]", "values": [{"measurement": "MIC", "setting": "[3]; antibiotic alone", "value": 0.5, "unit": "µg/mL"}, {"measurement": "MBEC value against MSSA ATCC 25923", "setting": "[4]", "value": 2048, "unit": "pug/mL"}]}, {"smiles": "CN[C@H](CC(C)C)C(=O)N[C@H]1C(=O)N[C@@H](CC(N)=O)C(=O)N[C@H]2C(=O)N[C@H]3C(=O)N[C@H](C(=O)N[C@H](C(=O)O)c4cc(O)cc(O)c4-c4cc3ccc4O)[C@H](O)c3ccc(c(Cl)c3)Oc3cc2cc(c3O[C@@H]2O[C@H](CO)[C@@H](O)[C@H](O)[C@H]2O[C@H]2C[C@](C)(N)[C@H](O)[C@H](C)O2)Oc2ccc(cc2Cl)[C@H]1O", "note": "[Vancomycin, vancomycin hydrochloride, reference compound]", "values": [{"measurement": "MIC", "setting": "[3]", "value": 0.5, "unit": "µg/mL"}, {"measurement": "MBEC value against MSSA ATCC 25923", "setting": "[4]", "value": 2048, "unit": "pug/mL"}]}]}
